Measurements from PubChem BioAssay AID977605 (Broad Institute, 2014).
Calls of active or inactive are those of the source.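 The calls were made as follows: active = fitted curve reaches 40% activation below the top valid tested dose, in every test run; inconclusive = test runs disagree on the call; inactive = the rest, including effects opposite to the expected direction.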

test: E-selectin inducers in HUVECs, dose response, imaging, HUVEC, cherry-picked samples (AID 977605); settings: HUVEC E-selectin immunostaining, at 16 µM (top of the series), percent of TNF-alpha response over vehicle;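 also: signal is the share of imaged cells scored positive for E-selectin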

Structure (SMILES)	activation
C[C@H](CO)N1C[C@H](C)[C@@H](CN(C)S(=O)(=O)c2cn(C)cn2)Oc2ccc(NC(=O)CCCCCC(=O)Nc3ccccc3N)cc2C1=O	-0.01% (inactive)

same assay, conditions: HUVEC E-selectin immunostaining, at 19.5 µM (top of the series), percent of TNF-alpha response over vehicle

Structure (SMILES)	activation
C[C@H](CO)N1C[C@H](C)[C@@H](CN(C)Cc2ccc(C(F)(F)F)cc2)Oc2c(NS(C)(=O)=O)cccc2C1=O	-0.122% (inactive)
O=C(COC(=O)c1ccccc1NCCO)NNC(=O)c1cccs1	-0.279% (inactive)
CCOC(=O)c1cccc(NC(=O)c2cc(C)nn2-c2ccccc2)c1	0.657% (inactive)
CN(C)C1(CNC(=O)C2CCN(S(=O)(=O)c3cc(Cl)ccc3Cl)CC2)CCCCC1	-0.207% (inactive)
CC1CCN(c2nc3c(=O)[nH]c(N)nc3n2[C@@H]2O[C@H](CO)[C@@H](O)[C@H]2O)CC1	0.131% (inactive)
C[C@@H]1CN([C@@H](C)CO)C(=O)Cc2cc(NS(=O)(=O)c3ccc(F)cc3)ccc2O[C@H]1CN(C)S(=O)(=O)c1ccc(Cl)cc1	-0.127% (inactive)
COc1ccc(S(=O)(=O)Nc2ccc3c(c2)C(=O)N([C@@H](C)CO)C[C@@H](C)[C@@H](CN(C)Cc2ccc(C(=O)Nc4ccccc4N)cc2)O3)cc1	1.66% (inactive)
CC(=O)NC1C(=O)N(CCN2CCOCC2)c2ccc(F)cc21 (configuration not stated)	-0.179% (inactive)
O=C(CN(Cc1ccc(F)cc1)C(=O)CNS(=O)(=O)c1ccc(F)cc1)NCc1ccco1	-0.246% (inactive)
C[C@@H]1CN([C@H](C)CO)C(=O)c2cc(N(C)C)ccc2O[C@H]1CN(C)S(=O)(=O)c1cn(C)cn1	-0.007% (inactive)
CCOC(=O)C1(Cc2cccc(OC)c2)CCN(Cc2ccccc2)CC1	0.067% (inactive)
O=C(CCCn1c(=O)c2ccccc2n(CC(=O)N2CCN(c3ccccc3)CC2)c1=O)NCc1ccco1	-0.084% (inactive)
Cc1cccc(NS(=O)(=O)c2ccc(S(=O)(=O)N3CCCC3)cc2)c1	1.83% (inactive)
COc1ccc(S(=O)(=O)N(C)C[C@H]2Oc3ccc(NC(=O)Nc4c(C)noc4C)cc3C(=O)N([C@H](C)CO)C[C@H]2C)cc1	0.58% (inactive)
CC(C)CCNC(=O)c1cn(C)c2ccc(S(=O)(=O)N3CCCC3)cc2c1=O	-0.129% (inactive)
COc1ccc(S(=O)(=O)Nc2cccc3c2O[C@H](CN(C)C(=O)Nc2cccc4ccccc24)[C@@H](C)CN([C@H](C)CO)C3=O)cc1	-0.185% (inactive)
O=C(C1CCCN(c2nnc(-n3cccc3)s2)C1)N1CCN(c2ccccc2)CC1 (configuration not stated)	0.14% (inactive)
CCCC#Cc1ccc2c(c1)O[C@@H](CN(C)C(=O)c1ccccc1)[C@@H](C)CN([C@H](C)CO)S2(=O)=O	-0.25% (inactive)
CC(C)NC(=O)N(C)C[C@H]1Oc2ccc(NC(=O)CCC(F)(F)F)cc2CC(=O)N([C@H](C)CO)C[C@@H]1C	-0.115% (inactive)
Cc1noc(C)c1NC(=O)Nc1cccc2c1O[C@H](CN(C)CC1CCCCC1)[C@H](C)CN([C@@H](C)CO)C2=O	0.049% (inactive)
COc1ccc(Nc2n[nH]c(N)c2C(N)=O)cc1	-0.163% (inactive)
COc1ncnc(OC)c1S(=O)(=O)NCc1ccccc1	-0.033% (inactive)

Structure (SMILES)	activation
C[C@@H]1CCCCO[C@@H](CN(C)C(=O)Cc2ccccc2)[C@@H](C)CN([C@H](C)CO)C(=O)c2cc(NS(=O)(=O)c3cccs3)ccc2O1	0.129% (inactive)
N#CC1(NC(=O)CN2C(=O)c3ccccc3C2=O)CCCCC1	16.1% (inactive)
COc1cccc(CCC(=O)N2CCC(n3nccc3NC(=O)CC(C)C)CC2)c1	-0.002% (inactive)
CC(C)NC(=O)N(C)C[C@@H]1Oc2c(NC(=O)c3ccc(-c4nccs4)cc3)cccc2C(=O)N([C@H](C)CO)C[C@H]1C	-0.093% (inactive)
C[C@@H]1CN([C@H](C)CO)C(=O)c2cc(NC(=O)Cc3cn(C)c4ccccc34)ccc2O[C@H]1CN(C)Cc1ccc(Cl)c(Cl)c1	4.38% (inactive)
CC(C)C(c1nnnn1C1CCCCC1)N1CCN(C(=O)c2ccco2)CC1 (configuration not stated)	-0.112% (inactive)
Cn1nc(C(=O)NNC(=O)c2ccccc2Br)c2ccccc2c1=O	-0.008% (inactive)
CC(C)NC(=O)Nc1cccc2c1O[C@H](CN(C)Cc1ccc(Cl)c(Cl)c1)[C@H](C)CN([C@@H](C)CO)C2=O	-0.02% (inactive)
COc1ccc(CN(C)C[C@@H]2Oc3c(NC(=O)Nc4ccc(F)cc4)cccc3C(=O)N([C@@H](C)CO)C[C@H]2C)cc1	8.09% (inactive)
CC1CCC(NC(=O)CCN2C(=O)C3C4C=CC(C4)C3C2=O)CC1 (configuration not stated)	0.46% (inactive)
Cc1c(N(C)C(=O)COc2ccc3ccccc3c2)c(=O)n(-c2ccccc2)n1C	-0.279% (inactive)
CC(C)NC(=O)N(C)C[C@@H]1Oc2ccc(NC(=O)Cn3cnnn3)cc2CC(=O)N([C@@H](C)CO)C[C@H]1C	0.965% (inactive)
Cc1noc(C)c1S(=O)(=O)Nc1ccc2c(c1)C(=O)N([C@H](C)CO)C[C@@H](C)[C@@H](CN(C)Cc1ccc3c(c1)OCO3)O2	-0.086% (inactive)
COc1ccccc1NS(=O)(=O)c1c(C)[nH]c(C)c1C(=O)N1CCCC1	13.9% (inactive)
O=S(=O)(NCc1cccnc1)c1ccc(Cl)c2ccccc12	0.304% (inactive)
CC(=O)c1ccc(N(C(=O)CNC(=O)c2ccco2)C(C(=O)NC2CCCC2)c2ccc(C)o2)cc1 (configuration not stated)	-0.024% (inactive)
CC(C)NC(=O)Nc1ccc2c(c1)C(=O)N([C@@H](C)CO)C[C@@H](C)[C@@H](CN(C)Cc1ccc(C(F)(F)F)cc1)O2	0.127% (inactive)
CC(C)CC#Cc1ccc2c(c1)O[C@H](CN(C)C(=O)c1ccccc1)[C@H](C)CN([C@@H](C)CO)S2(=O)=O	-0.183% (inactive)
CCc1nc(=O)c(-c2ccccc2)c(C)n1-c1ccccc1	-0.02% (inactive)
C[C@@H]1CN([C@@H](C)CO)C(=O)Cc2cc(NC(=O)c3ccncc3)ccc2O[C@@H]1CN(C)S(C)(=O)=O	4.61% (inactive)
COc1ccc(NC(=O)CCCn2c(=S)[nH]c3ccccc3c2=O)cc1	1.61% (inactive)

same assay, conditions: HUVEC E-selectin immunostaining, at 21 µM (top of the series), percent of TNF-alpha response over vehicle

Structure (SMILES)	activation
C[C@@H]1CN([C@H](C)CO)C(=O)c2cccc(NS(=O)(=O)c3cn(C)cn3)c2O[C@H]1CN(C)C(=O)Nc1ccc(F)cc1	6% (inactive)
C[C@H]1CN([C@@H](C)CO)C(=O)c2cc(NC(=O)Cn3cnnn3)ccc2O[C@H]1CN(C)Cc1ccc(Oc2ccccc2)cc1	0.004% (inactive)
C[C@H]1CN([C@@H](C)CO)C(=O)Cc2cc(NC(=O)CCCCCC(=O)Nc3ccccc3N)ccc2O[C@H]1CN(C)Cc1ccc(Cl)c(Cl)c1	5.06% (inactive)
C[C@H](CO)N1C[C@H](C)[C@@H](CN(C)S(=O)(=O)c2ccc(F)cc2)Oc2ccc(NS(C)(=O)=O)cc2CC1=O	0.279% (inactive)
COc1ccc(S(=O)(=O)Nc2ccc3c(c2)CC(=O)N([C@@H](C)CO)C[C@@H](C)[C@@H](CN(C)C(=O)NC2CCCCC2)O3)cc1	-0.169% (inactive)
COc1ccc(S(=O)(=O)N(C)C[C@H]2Oc3ccc(NC(=O)Nc4c(C)noc4C)cc3C(=O)N([C@@H](C)CO)C[C@@H]2C)cc1	2.96% (inactive)
C[C@@H]1CN([C@H](C)CO)C(=O)c2cc(NC(=O)c3ccncc3)ccc2O[C@@H]1CN(C)C(=O)Nc1ccc2c(c1)OCO2	0.64% (inactive)
C[C@@H]1CN([C@@H](C)CO)C(=O)c2cc(NC(=O)CCN3CCOCC3)ccc2O[C@H]1CN(C)Cc1ccncc1	-0.05% (inactive)
